Experimental data from PubChem BioAssay AID330 (DTP/NCI, 2004).
“And” between values parts separate entries of the source, which are not always exact repeats. Equal entries are not always repeated. Toxic doses and inconclusive results are not listed. The calls were made as follows: active = survival T/C of 150% or more; inactive = T/C below 125% in these data.

Tested on: P388 leukemia ip, CD2F1 mice, survival T/C
Assay: NCI In Vivo Anticancer Drug Screen. Data for tumor model P388 Leukemia (intraperitoneal) in CD2F1 (CDF1) mice
Conditions: endpoint: median survival time, higher = longer survival
Method in brief: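 Mice carrying the transplanted tumor received test compound or vehicle. Survival was recorded in each group, and the value is the treated-group measurement divided by that of the vehicle-treated control group.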

[1] = dose: 50.0 mg/kg/injection, schedule: Q01DX005 (ip), vehicle: saline with Tween-80
[2] = dose: 100.0 mg/kg/injection, schedule: Q01DX005 (ip), vehicle: saline with Tween-80
[3] = dose: 200.0 mg/kg/injection, schedule: Q01DX005 (ip), vehicle: saline with Tween-80
[4] = dose: 50.0 mg/kg/injection, schedule: Q01DX009 (ip), vehicle: saline with Tween-80
[5] = dose: 100.0 mg/kg/injection, schedule: Q01DX009 (ip), vehicle: saline with Tween-80
[6] = dose: 200.0 mg/kg/injection, schedule: Q01DX009 (ip), vehicle: saline with Tween-80
[7] = dose: 50.0 mg/kg/injection, schedule: Q01DX005 (ip), vehicle: Klucel (hydroxypropylcellulose) (HPC)
[8] = dose: 100.0 mg/kg/injection, schedule: Q01DX005 (ip), vehicle: Klucel (hydroxypropylcellulose) (HPC)
[9] = dose: 200.0 mg/kg/injection, schedule: Q01DX005 (ip), vehicle: Klucel (hydroxypropylcellulose) (HPC)
[10] = dose: 50.0 mg/kg/injection, schedule: Q01DX009 (ip), vehicle: Klucel (hydroxypropylcellulose) (HPC)
[11] = dose: 100.0 mg/kg/injection, schedule: Q01DX009 (ip), vehicle: Klucel (hydroxypropylcellulose) (HPC)
[12] = dose: 200.0 mg/kg/injection, schedule: Q01DX009 (ip), vehicle: Klucel (hydroxypropylcellulose) (HPC)
[13] = dose: 25.0 mg/kg/injection, schedule: Q01DX005 (ip), vehicle: Klucel (hydroxypropylcellulose) (HPC)
[14] = dose: 100.0 mg/kg/injection, schedule: Q04DX003 (ip), vehicle: saline
[15] = dose: 200.0 mg/kg/injection, schedule: Q04DX003 (ip), vehicle: saline

Measured: T/C

CNC(=O)n1nc(C)cc1C
inactive: dose: 50.0 mg/kg/injection, schedule: Q01DX005 (ip), vehicle: distilled water + alcohol 108 % of control | dose: 100.0 mg/kg/injection, schedule: Q01DX005 (ip), vehicle: distilled water + alcohol 102 % of control | dose: 200.0 mg/kg/injection, schedule: Q01DX005 (ip), vehicle: distilled water + alcohol 108 % of control

C/C(=N\NC(=S)Nc1ccc(C(=O)O)cc1C)c1ccc2ccccc2n1
inactive: [1] 109 % of control | [2] 107 % of control | [3] 119 % of control

Cc1[nH]c2ccc(N(C)C)cc2c(=O)c1Cc1c(C)[nH]c2ccc(N(C)C)cc2c1=O
inactive: dose: 60.0 mg/kg/injection, schedule: Q01DX005 (ip), vehicle: saline with Tween-80 92 % of control | dose: 120.0 mg/kg/injection, schedule: Q01DX005 (ip), vehicle: saline with Tween-80 89 % of control

Cc1ncc(CO)n1C
inactive: [4] 104 % of control | [5] 101 % of control | [6] 101 % of control | dose: 400.0 mg/kg/injection, schedule: Q01DX009 (ip), vehicle: saline with Tween-80 113 % of control

Cc1ccccc1-n1c(COc2c(C)cccc2C)n[nH]c1=S
inactive: [7] 93 % of control | [8] 97 % of control | [9] 99 % of control

CC(=O)Nc1nnc(-c2cc(=O)c3cc(Cl)ccc3o2)s1
inactive: [1] 101 % of control | [2] 92 % of control | [3] 97 % of control

O=C1c2cc(Cl)ccc2OC2CCON12 (centres undefined)
inactive: [10] 108 % of control | [11] 110 % of control | [12] 116 % of control

C/C(=C\Cc1cc(O)c(C)cc1O)CC/C=C(\C)Cc1cc(C)co1
inactive: dose: 4.0 mg/kg/injection, schedule: Q01DX009 (ip), vehicle: Klucel (hydroxypropylcellulose) (HPC) 93 % of control | dose: 8.0 mg/kg/injection, schedule: Q01DX009 (ip), vehicle: Klucel (hydroxypropylcellulose) (HPC) 101 % of control | dose: 16.0 mg/kg/injection, schedule: Q01DX009 (ip), vehicle: Klucel (hydroxypropylcellulose) (HPC) 101 % of control | dose: 32.0 mg/kg/injection, schedule: Q01DX009 (ip), vehicle: Klucel (hydroxypropylcellulose) (HPC) 108 % of control

CCOC(=O)CC1(C)c2nc(NC(C)=O)sc2Cc2sc(NC(C)=O)nc21
inactive: dose: 60.0 mg/kg/injection, schedule: Q01DX005 (ip), vehicle: saline 101 % of control | dose: 120.0 mg/kg/injection, schedule: Q01DX005 (ip), vehicle: saline 100 % of control | dose: 240.0 mg/kg/injection, schedule: Q01DX005 (ip), vehicle: saline 100 % of control

COc1c(OC)c(OC)c(-c2cc(=O)c3c(OC)cccc3o2)c(OC)c1OC
inactive: dose: 25.0 mg/kg/injection, schedule: Q01DX005 (ip), vehicle: distilled water + Tween-80 + alcohol 102 % of control | dose: 50.0 mg/kg/injection, schedule: Q01DX005 (ip), vehicle: distilled water + Tween-80 + alcohol 96 % of control | dose: 100.0 mg/kg/injection, schedule: Q01DX005 (ip), vehicle: distilled water + Tween-80 + alcohol 95 % of control

CC(C)C(NSC(=O)C1CCCN1Sc1ccc([N+](=O)[O-])cc1[N+](=O)[O-])C(=O)OCc1ccccc1 (centres undefined)
inactive: [13] 92 % of control | [7] 94 % of control | [8] 86 % of control and 93 % of control | [9] 93 % of control

O=S(=O)(O)c1ccc(OCCCCCCCCOc2ccc(S(=O)(=O)O)cc2)cc1
inactive: dose: 50.0 mg/kg/injection, schedule: Q01DX005 (ip), vehicle: saline 112 % of control | dose: 100.0 mg/kg/injection, schedule: Q01DX005 (ip), vehicle: saline 109 % of control | dose: 200.0 mg/kg/injection, schedule: Q01DX005 (ip), vehicle: saline 100 % of control

CC1=CC(=Nc2cc(Cl)c(O)c(Cl)c2)C=CC1=O
inactive: dose: 6.25 mg/kg/injection, schedule: Q01DX005 (ip), vehicle: saline 96 % of control | dose: 12.5 mg/kg/injection, schedule: Q01DX005 (ip), vehicle: saline 96 % of control | dose: 25.0 mg/kg/injection, schedule: Q01DX005 (ip), vehicle: saline 89 % of control

CCOP(=O)(NN)OCC
inactive: dose: 25.0 mg/kg/injection, schedule: Q04DX003 (ip), vehicle: saline 114 % of control | dose: 50.0 mg/kg/injection, schedule: Q04DX003 (ip), vehicle: saline 97 % of control | [14] 106 % of control | [15] 103 % of control

N=c1ccn2c(n1)OC1C(O)C(COS(=O)OC3C(CO)OC4C3Oc3nc(=N)ccn34)OC12 (centres undefined)
inactive: [6] 112 % of control

CC(C)(C)C=O
inactive: [14] 100 % of control | [15] 100 % of control | dose: 400.0 mg/kg/injection, schedule: Q04DX003 (ip), vehicle: saline 100 % of control

CCCCCCOC(=O)c1ccc(Br)cc1
inactive: [10] 104 % of control | [11] 101 % of control | [12] 93 % of control

CCN(CC)CCOc1ccc(C=Nc2ccc3c4ccccc4n(CC)c3c2)cc1
inactive: dose: 100.0 mg/kg/injection, schedule: Q01DX001 (ip), vehicle: Klucel (hydroxypropylcellulose) (HPC) 100 % of control | dose: 200.0 mg/kg/injection, schedule: Q01DX001 (ip), vehicle: Klucel (hydroxypropylcellulose) (HPC) 100 % of control | dose: 400.0 mg/kg/injection, schedule: Q01DX001 (ip), vehicle: Klucel (hydroxypropylcellulose) (HPC) 99 % of control

CCN(CC)C(=S)N/N=C(\C)c1ccccn1
inactive: dose: 6.25 mg/kg/injection, schedule: Q01DX009 (ip), vehicle: saline with Tween-80 106 % of control | dose: 12.5 mg/kg/injection, schedule: Q01DX009 (ip), vehicle: saline with Tween-80 89 % of control

O=c1nc2[nH]c3c4cccc5cccc(c3nc2c(=O)[nH]1)c54
inactive: dose: 12.5 mg/kg/injection, schedule: Q01DX005 (ip), vehicle: Klucel (hydroxypropylcellulose) (HPC) 101 % of control and 108 % of control | [13] 101 % of control and 98 % of control | [7] 106 % of control and 110 % of control (2×) | [8] 108 % of control and 113 % of control and 124 % of control

c1ccc(NSc2ccccc2)cc1
inactive: dose: 25.0 mg/kg/injection, schedule: Q01DX009 (ip), vehicle: Klucel (hydroxypropylcellulose) (HPC) 119 % of control | dose: 25.0 mg/kg/injection, schedule: Q01DX009 (ip), vehicle: saline with Tween-80 100 % of control | [10] 103 % of control and 119 % of control | [4] 98 % of control | [11] 101 % of control and 121 % of control | [5] 109 % of control | [12] 106 % of control | [6] 100 % of control
